Assay results from PubChem BioAssay AID1963847 (Molecular Pharmacology Branch, DTP, NCI, 2024).
pIC50: −log10 of the molar value.

Tested on: 415267-285-R-J2-PDC complex spheroid viability
Assay: Anticancer human tumor 415267-285-R-J2-PDC patient-derived breast carcinoma cell line growth inhibition [POLQ]
Settings: for pIC50: curve of first compound; for viability, T/C: stronger effect = lower value
Method: Multicellular complex tumor spheroid response to Polymerase (POL) inhibitors (novobiocin, ART-558, RP6685) in combination with a variety of drugs and investigational agents in selected tumor cell lines
The POL inhibitors (novobiocin, ART-558, and RP6685) were evaluated both individually and in combination with standard of care and investigational anticancer small molecules within a complex spheroid model of solid tumors. . Complex spheroids include a stromal component modeled by human endothelial cells (HUVEC) and fibroblasts modeled by human mesenchymal stem cells (MSCs). The concentration ranges selected for each drug and investigational agent were based upon clinically achievable concentrations if the clinical Cmax of the agent was known.
Compounds. The drugs and investigational agents: novobiocin (NSC847541), ART-558 (NSC835418), RP-6685 (NSC848927), peposertib (NSC802822), ceralasertib (NSC780249), elimusertib (NSC800525), camonsertib (NSC841442), AZD-1390 (NSC803789), olaparib (NSC753686), talazoparib (NSC767125), rucaparib (NSC756644), sotorasib (NSC818433), MRTX-1133 (NSC836407), SN-38 (NSC673596), topotecan (NSC609699), epotoside (NSC141540), doxorubicin (NSC123127), gemcitabine (NSC613327), 5-fluorouracil (NSC19893), paclitaxel (NSC125973), vemurafenib (NSC761431), MSA-2 (NSC828583), SN-011 (NSC837082), adavosertib (NSC754352), prexasertib (NSC758257), carboplatin (NSC241240) and oxaliplatin (NSC266046), were obtained from the National Cancer Institute (NCI) Developmental Therapeutics Program Chemical Repository (21). The FDA-approved anticancer drug set is available from the Developmental Therapeutics Program at https://dtp.cancer.gov/organization/dscb/obtaining/. […] The stock solutions were prepared in dimethyl sulfoxide (DMSO, Sigma-Aldrich, St. Louis, MO, cat. D2650), except for the platinum compounds which were prepared in saline (Quality Biological, Gaithersburg, MD, cat. 114-055-101), at 800-fold the tested concentration and stored at -70 degrees C prior to their use. All drugs and investigational agents were tested over a range starting from a high concentration at or near the clinical Cmax and decreasing in half-log increments. If the clinical Cmax for an agent had not been determined, the highest concentration tested was 10 microM, except for SN-38, which was tested at a high concentration of 1 microM.
Cell Culture. All cells were maintained in an incubator at 37 degrees C and 5% CO2 with 95% humidity. The PDC lines were cultured according to standard operating procedures established by the NCI PDMR (https://pdmr.cancer.gov). Table 3 of the manuscript, lists the cell lines along with the number of the three cell types plated to form the mct-spheroids and media for tumor cell growth. After thawing, all PDC lines, except 997537-175-T-J1-PDC and 415267-285-R-J2-PDC, were cultured in Matrigel-coated flasks prepared with a working solution of 1X Ham's F-12 nutrient mix, without supplementation (Thermo Fisher Scientific, cat. 11765054), 100 U/mL penicillin-streptomycin (Thermo Fisher Scientific, cat. 15140122), and 2.5% Matrigel (Corning Inc., Corning, NY, cat. 354248) for the first three passages. The two PDC lines 997537-175-T-J1-PDC and 415267-285-R-J2-PDC were cultured on uncoated flasks. The 857933-349-R-J2-PDC line was cultured in 6C/Colon 1B media containing advanced DMEM/F-12 (Thermo Fisher Scientific, cat. 12634028), 10 mM HEPES (Thermo Fisher Scientific, cat. 15630080), 1X GlutaMAX supplement (Thermo Fisher Scientific, cat. 35050061), 0.1 mg/mL primocin (InvivoGen, San Diego, CA, cat. ant-pm-2), 10% defined fetal bovine serum, heat inactivated (HyClone Laboratories Inc., Logan, UT, cat. SH30070.03HI), 50% L-WRN conditioned media (ATCC, cat. CRL-3276), 1.25 mM N-Acetyl-L-cysteine (Sigma-Aldrich, cat. A9165), 10 mM nicotinamide (Sigma-Aldrich, cat. N0636), 1X B-27 supplement (Thermo Fisher Scientific, cat. 17504044), 1X N-2 supplement (Thermo Fisher Scientific, cat. […]
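Further: spheroids exposed to compounds for one week before readout.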
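Wherever viability, T/C is given: luminescence used as stand-in measure of viable cells; 100% = DMSO vehicle control viability.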

## CC1COCCN1c1cc(C2(S(C)(=N)=O)CC2)nc(-c2ccnc3[nH]ccc23)n1 (configuration not stated) + Cc1cccc(N(C)C(=O)C2C(O)CCN2c2nc(C)cc(C(F)(F)F)c2C#N)c1
Second compound 0.0316 µM
  pIC50: 6.31
Second compound 0.1 µM
  pIC50: 6.35
Second compound 0.316 µM
  pIC50: 6.36
Second compound 1 µM
  pIC50: 6.33
Second compound 3.16 µM
  pIC50: 6.37
Second compound 10 µM
  pIC50: 6.30
Second compound 0.0316 µM, first compound 0.0316 µM
  viability, T/C: 88.4%
Second compound 0.0316 µM, first compound 0.1 µM
  viability, T/C: 102%
Second compound 0.0316 µM, first compound 0.316 µM
  viability, T/C: 70.3%
Second compound 0.0316 µM, first compound 1 µM
  viability, T/C: 15.8%
Second compound 0.0316 µM, first compound 3.16 µM
  viability, T/C: 6.51%
Second compound 0.0316 µM, first compound 10 µM
  viability, T/C: 5.21%
Second compound 0.1 µM, first compound 0.0316 µM
  viability, T/C: 92.8%
Second compound 0.1 µM, first compound 0.1 µM
  viability, T/C: 96.3%
Second compound 0.1 µM, first compound 0.316 µM
  viability, T/C: 65%
Second compound 0.1 µM, first compound 1 µM
  viability, T/C: 14.3%
Second compound 0.1 µM, first compound 3.16 µM
  viability, T/C: 5.97%
Second compound 0.1 µM, first compound 10 µM
  viability, T/C: 4.58%
Second compound 0.316 µM, first compound 0.0316 µM
  viability, T/C: 102%
Second compound 0.316 µM, first compound 0.1 µM
  viability, T/C: 98.7%
Second compound 0.316 µM, first compound 0.316 µM
  viability, T/C: 62.8%
Second compound 0.316 µM, first compound 1 µM
  viability, T/C: 17.7%
Second compound 0.316 µM, first compound 3.16 µM
  viability, T/C: 6.78%
Second compound 0.316 µM, first compound 10 µM
  viability, T/C: 4.96%
Second compound 1 µM, first compound 0.0316 µM
  viability, T/C: 106%
Second compound 1 µM, first compound 0.1 µM
  viability, T/C: 107%
Second compound 1 µM, first compound 0.316 µM
  viability, T/C: 70.2%
Second compound 1 µM, first compound 1 µM
  viability, T/C: 12.4%
Second compound 1 µM, first compound 3.16 µM
  viability, T/C: 6.47%
Second compound 1 µM, first compound 10 µM
  viability, T/C: 5.16%
Second compound 3.16 µM, first compound 0.0316 µM
  viability, T/C: 94.2%
Second compound 3.16 µM, first compound 0.1 µM
  viability, T/C: 94.8%
Second compound 3.16 µM, first compound 0.316 µM
  viability, T/C: 62.4%
Second compound 3.16 µM, first compound 1 µM
  viability, T/C: 12.5%
Second compound 3.16 µM, first compound 3.16 µM
  viability, T/C: 6.4%
Second compound 3.16 µM, first compound 10 µM
  viability, T/C: 5.39%
Second compound 10 µM, first compound 0.0316 µM
  viability, T/C: 91.6%
Second compound 10 µM, first compound 0.1 µM
  viability, T/C: 102%
Second compound 10 µM, first compound 0.316 µM
  viability, T/C: 72.7%
Second compound 10 µM, first compound 1 µM
  viability, T/C: 15.7%
Second compound 10 µM, first compound 3.16 µM
  viability, T/C: 6.3%
Second compound 10 µM, first compound 10 µM
  viability, T/C: 4.96%
